Where two headings read alike, the source gives them in different places.

The conditions of data set [1]: human being; Osamu et al. 1986; cited from earlier work.
Data set [2] has as its target T1, bovine thrombin (Bos taurus, UniProt P00735). As to conditions: for Ki: read-out: Inhibitory activity for thrombin, Ki, bovine thrombin, pH 7.8, initial velocity, reaction started with enzyme.
Description: (§1) The thrombin inhibitory effect of the compound of formula (I) according to the present invention can be identified by determination of a dissociation constant Ki represented by the following equation according to the known method described in literature [see, Methods in enzymology V. 80,p341-361;Biochemistry 27,p2144-2151 (1988)].
(§2) The dissociation constant Ki denotes the degree of dissociation of the enzyme-thrombin inhibitor complex. […] Such dissociation constant can be determined by reacting thrombin with a certain substrate which develops a color when it is hydrolyzed by the action of thrombin, and then measuring the degree of color development as a function of time by means of spectrophotometry.
(§3) Chromozym TH is hydrolyzed by thrombin to produce yellow para-nitroaniline. Accordingly, the amount of yellow para-nitroaniline thus produced can be measured as the change of absorbance in the course of time to determine the thrombin inhibitory activity of the compound according to the present invention. That is, the enzyme activity can be determined from the rate of change in absorbance and then can be directly connected with the ability of the thrombin inhibitor to inhibit the enzyme activity (see, Methods in Enzymology, V. 80,p341-361,Biochemistry 27, p2144-2151, 1988).
(§4) The ability of the compound according to the present invention to inhibit the thrombin activity was determined as described in the following.
(§5) 1160 μl of 0.1M tris buffered solution (pH 7.8) containing 150 mM NaCl and 0.1% PEG 8000 (polyethylene glycol, molecular weight about 8,000) was added to a 1.5 ml cuvette. Chromozym TH was dissolved in dimethylsulfoxide(DMSO) in the concentration of 10mM and the resulting solution was diluted with the said tris buffered solution to the concentration of 0.1 mM, which was then used as the substrate solution. 225 μl of 0.1 mM substrate solution thus prepared was added to the cuvette. The inhibitor solution was prepared by dissolving the thrombin inhibitor compound according to the present invention in dimethylsulfoxide in the concentration of 10 mg/ml and then diluting the resulting solution with the said tris buffered solution to the concentration of 0.1 mg/ml, 0.01 mg/ml, 0.001 mg/ml and 0.0001 mg/ml. The resulting inhibitor solution was taken in an amount corresponding to 0 to 10 μg as the inhibitor and then diluted with tris buffered solution to make the total volume of 100 μl which was added to the cuvette.
(§6) 15 μl of bovine thrombin solution dissolved in above tris buffered solution in the concentration of 0.1 mg/ml was added to the cuvette to initiate the enzyme hydrolysis reaction. The amount of para-nitroaniline produced for 2 minutes from the moment the enzyme is added was monitored by measuring the absorbance at 381 nm. The continuous spectrum of absorbance to reaction time was depicted. The same experiments were conducted for various concentration of the inhibitor to obtain the continuous spectrum.
(§7) In each spectrum, the initial velocity Vi was obtained from the slope within initial 30 seconds of the reaction time and then a graph for the reciprocal value of initial velocity(1/Vi) to the inhibitor concentration was depicted. From the graph, the primary equation satisfying the points depicted thereon was obtained and then the value Ki was calculated from the x intercept of the primary equation using the enzyme reaction equation.
(§8) The velocity constant Ks was obtained using the same solution in the same concentration as in determination of the value Ki but using the following experimental procedure.
A further data set concerns the target T2, trypsin (Bos taurus, UniProt P00760).
T2 sequence (P00760 24-246): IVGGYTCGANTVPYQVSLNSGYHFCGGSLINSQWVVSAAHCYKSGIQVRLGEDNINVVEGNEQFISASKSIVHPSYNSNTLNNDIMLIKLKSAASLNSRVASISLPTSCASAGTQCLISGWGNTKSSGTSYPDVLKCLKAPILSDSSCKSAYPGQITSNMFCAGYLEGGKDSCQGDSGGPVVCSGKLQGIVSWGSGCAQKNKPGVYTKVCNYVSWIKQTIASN
Kind of data set: biochemical. The format is biochemical. The conditions noted are these: 20 μM substrate; read-out: Inhibitory activity for trypsin, Ki. As to the method: To identify the selectivity for thrombin over trypsin of the compound of the present invention, the inhibitory activity for trypsin of the compound of formula (I) is measured as Ki value according to the same method as the above method for determination of thrombin inhibitory activity, and then the ratio of the activity for trypsin to the activity for thrombin is calculated. In this case, the procedure for determination of inhibitory activity for trypsin is substantially identical to that for thrombin, except that N-benzoyl-Val-Gly-Arg para-nitroanilide hydrochloride is used as the substrate.
As the substrate 20μM solution of N-benzoyl-Val-Gly-Arg-p-nitroanilide hydrochloride was used, and the inhibitor was used in various concnetrations within the range of […]. In addition, trypsin was dissolved in 0.1N HCl, adjusted to the concentration of 45 μg/ml with the said tris buffered solution just before the experiment, and then used in an amount of 40μl. As in the experiment for thrombin, a total volume of the reaction solution was 1.5 ml and the remaining procedure was conducted in the same manner.

Data set [3] concerns the target T1, bovine thrombin. Kind of data set: biochemical.
Description: as §1, §2, §3, §4, §5, §6, §7, §8
The subject of a further data set is thrombin over trypsin. The conditions noted are these: cited from earlier work.
The conditions of data set [4]: literature, cited from earlier work.
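Wherever Km is given: bovine thrombin cleaving the chromogenic substrate Chromozym TH, with para-nitroaniline release tracked as absorbance change over time to give initial rates, in Tris buffer at pH 7.8.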

Turning to `CC1CNc2c(cccc2S(=O)(=O)N[C@@H](CCCNC(=N)N)C(=O)N2CC[C@@H](C)C[C@@H]2C(=O)O)C1` (stereo partly drawn) [Argatroban], the elimination half-life in data set [1] was 40 min.
With `CCCCN(C)C(=O)[C@H](Cc1ccc(C(=N)NN)cc1)NS(=O)(=O)c1ccc2ccccc2c1` [Example 2, (S)-N-butyl-N-methyl-3-(4-amidrazonophenyl)-2-(2-naphthylsulfonylamino)propionamide], the Ki (as a rule, a measure of affinity in units of concentration, obtained from inhibition or displacement) at bovine thrombin [2] was 41 nM.
The same measure, in the same setting: in the case of `CCCN(C(=O)[C@H](Cc1ccc(C(=N)NN)cc1)NS(=O)(=O)c1ccc2ccccc2c1)C1CCCC1` [Example 3, (S)-N-cyclopentyl-N-propyl-3-(4-amidrazonophenyl)-2-(2-naphthylsulfonylamino)propionamide] it was 93 nM; in that of `CCCCN(C(=O)[C@H](Cc1ccc(C(=N)NN)cc1)NS(=O)(=O)c1ccc2ccccc2c1)C1CCCC1` [Example 5, (S)-N-cyclopentyl-N-butyl-3-(4-amidrazonophenyl)-2-(2-naphthylsulfonylamino)propionamide], 231 nM.
Same read-out and setting: in the case of `N=C(NN)c1ccc(C[C@H](NS(=O)(=O)c2ccc3ccccc3c2)C(=O)N(O)C2CCCC2)cc1` [Example 10, (S)-N-cyclopentyl-N-hydroxy-3-(4-amidrazonophenyl)-2-(2-naphthylsulfonylamino)propionamide] it was 367 nM; in that of `CN(C(=O)[C@H](Cc1ccc(C(=N)NN)cc1)NS(=O)(=O)c1ccc2ccccc2c1)C1CCCCC1` [Example 15, (S)-N-cyclohexyl-N-methyl-3-(4-amidrazonophenyl)-2-(2-naphthylsulfonylamino)propionamide], 152 nM.
Take `CN(C(=O)[C@H](Cc1ccc(C(=N)NN)cc1)NS(=O)(=O)c1ccc2ccccc2c1)C1CC1` [Example 16, (S)-N-cyclopropyl-N-methyl-3-(4-amidrazonophenyl)-2-(2-naphthylsulfonylamino)propionamide]: the inhibition constant Ki on bovine thrombin [2] came out at 247 nM.
Consider `CN(C)c1cccc2c(S(=O)(=O)N[C@@H](Cc3ccc(C(=N)NN)cc3)C(=O)N(C)C3CCCC3)cccc12` [Example 18, (S)-3-[4-(amidrazono)-phenyl]-N-cyclopentyl-N-methyl-2-(5-dimethylamino-naphthalene-1-sulfonylamino)-propionamide], for which the Ki at trypsin was determined as 3980 nM; on bovine thrombin [3], 11 nM.
`COc1cccc2c(S(=O)(=O)N[C@@H](Cc3ccc(C(=N)NN)cc3)C(=O)N(C)C3CCCC3)cccc12` [Example 19, (S)-3-[4-(amidrazono)-phenyl]-N-cyclopentyl-N-methyl-2-(5-methoxy-naphthalene-1-sulfonylamino)-propionamide]: the figures for the Ki at trypsin and on bovine thrombin [3] were 5250 nM and 5.3 nM, respectively.
On to `COc1cc2ccc(S(=O)(=O)N[C@@H](Cc3ccc(C(=N)NN)cc3)C(=O)N(C)C3CCCC3)cc2cc1OC` [Example 20, (S)-3-[4-(amidrazono)-phenyl]-N-cyclopentyl-N-methyl-2-(6,7-dimethoxy-naphthalene-2-sulfonylamino)-propionamide], for which the values for the Ki on trypsin and on bovine thrombin [3] were 2300 nM and 21.7 nM, respectively.
The matching figures for `CNC(=N)c1ccc(C[C@H](NS(=O)(=O)c2cccc3c(N(C)C)cccc23)C(=O)N(C)C2CCCC2)cc1` [Example 21, (S)-3-[4-(methylamidino)-phenyl]-N-cyclopentyl-N-methyl-2-(5-dimethylamino-naphthalene-1-sulfonylamino)-propionamide]: above 100000 nM and 25 nM.
As for `CN(C(=O)[C@H](Cc1ccc(C(=N)NN)cc1)NC(=O)COc1cccc2ccccc12)C1CCCC1` [Example 23, (S)-3-[4-(amidrazono)-phenyl]-N-cyclopentyl-N-methyl-2-[2-(naphthalen-1-yl-oxy)acetylamino]-propionamide], the Ki was found to be 21700 nM at trypsin and 2590 nM on bovine thrombin [3].
Turning to `CS(=O)(=O)N1CCN(C(=O)[C@H](Cc2ccc(C(=N)NN)cc2)NS(=O)(=O)c2ccc3ccccc3c2)CC1` [Example 50, (S)-naphthalene-2-sulfonic acid [1-(4-amidrazono)benzyl-2-(4-methylsulfonyl-piperazinyl)-2-oxoethyl]amide], the values for the Ki on trypsin and on bovine thrombin [3] were 5790 nM and 11 nM, respectively.
In the case of `N=C(N)c1ccc(CC(NC(=O)CNS(=O)(=O)c2ccc3ccccc3c2)C(=O)N2CCCCC2)cc1` (stereo not drawn) [NAPAP], in the data set with thrombin over trypsin (literature), the “thrombin inhibitory activity relative to activity for trypsin (selectivity)” value is recorded as 50 times.
On to `N=C(N)N1CCC[C@@H](CNC(=O)C[C@H](NS(=O)(=O)c2ccc3ccccc3c2)C(=O)N(CC(=O)O)C2CC2)C1` [Ro 46-6240], for which the “possibility for oral administration” value in data set [4] (oral) is reported as “does not show any possibility for oral administration”. Further, in data set [4], the “half-life in blood” value is listed as “short half-life in blood”. For the same molecule, in the data set on thrombin over trypsin (literature (J. Med. Chem. 1994, 37, 3889-3901)), the “selectivity for thrombin over trypsin” value was “improved selectivity for thrombin over trypsin”.
As for “Gly-Pro-Arg-4-nitroanilide acetate [Chromozym TH, reference compound]”, the Km (commonly the substrate concentration at which the rate is half of its maximum) on bovine thrombin [2] (substrate of thrombin, constant enzyme concentration) came out at 8.3 µM.

These data come from US5747535A, “Selective thrombin inhibitors” (priority 1995, dated 1998).
